Reference: patent US20070128669A1, “Serum-free expansion of cells in culture” (Institute for Chemical Genomics, priority 2005, published 2007)

How the values were obtained:
Murine ESCs (D3 ES) = assay: SSEA-1 expression of ESCs by flow cytometry; assay type: cell-based, mouse; details: 7 days after addition of IQ-1
Procedure: Flow Cytometry. Analysis of SSEA-1 expression of ESCs was performed by flow cytometry according to Zandstra et al. (35). The test cell population was washed in ice cold Hanks balanced salt solution (Invitrogen) containing 2% FCS(HF) and resuspended for 10 min in HF containing anti-mouse CD16/CD32 monoclonal antibody at 1 μg/100 μl (Pharmingen) to block nonspecific binding. Blocked cells were then incubated at 1×10^7 cells/ml for 40 min on ice with anti-SSEA-1 (Kyowa Medex) followed by FITC-Goat anti Mouse IgM antibody (ZYMED). Cells to be analyzed for their SSEA-1 expression were then washed twice in HF with 2 μg/ml propidium iodide (Dojindo) added into the final wash. The cells were then resuspended in HF for analysis on a FACS Calibur (Becton Dickinson).

[1] = system: TCF/β-catenin reporter in NIH-3T3 cells; assay: TOPFLASH/FOPFLASH TCF/β-catenin reporter assay in NIH-3T3 cells; assay type: cell-based
Procedure: (§1) NIH-3T3 cells (wt), NIH-3T3 CBP(+/−) cells and NIH-3T3 p300(+/−) cells were transfected as described in (26). Briefly, cells were transfected with TOPFLASH or FOPFLASH, using Fugene6 (Roche Molecular Biochemicals). Transfection efficiencies were normalized with pRL-null luciferase plasmid. Luciferase assays were performed with the DUAL-Luciferase Reporter Assay System (Promega).
as §1, with “In certain experiments, NIH-3T3 cells” for “NIH-3T3 cells”
The Wnt/β-catenin reporter constructs TOPFLASH and FOPFLASH in wild-type NIH-3T3 cells (wt), NIH-3T3 CBP(+/−) cells and NIH-3T3 p300(+/−) cells were used to determine whether IQ-1, by targeting the PR72/130 subunit with PP2A, was selectively increasing β-catenin's usage of CBP as a coactivator at the expense of p300, thereby maintaining the ESCs in the undifferentiated state (FIG. 4A). A point mutant constitutively translocating β-catenin (pt-mut β-cat) was used to stimulate reporter activity (28).

CBP/β-catenin complex = target: T1, CBP/β-catenin complex (Mus musculus, UniProt P45481); assay: Co-immunoprecipitation of β-catenin with CBP in P19 cells; assay type: cell-based; details: Wnt3a, 10 μM, 24 hours
T1 construct: endogenous in cells; host or cells: P19 cells (nuclear fraction)
T1 sequence (P45481 2-2441 limits assumed, one chain of several): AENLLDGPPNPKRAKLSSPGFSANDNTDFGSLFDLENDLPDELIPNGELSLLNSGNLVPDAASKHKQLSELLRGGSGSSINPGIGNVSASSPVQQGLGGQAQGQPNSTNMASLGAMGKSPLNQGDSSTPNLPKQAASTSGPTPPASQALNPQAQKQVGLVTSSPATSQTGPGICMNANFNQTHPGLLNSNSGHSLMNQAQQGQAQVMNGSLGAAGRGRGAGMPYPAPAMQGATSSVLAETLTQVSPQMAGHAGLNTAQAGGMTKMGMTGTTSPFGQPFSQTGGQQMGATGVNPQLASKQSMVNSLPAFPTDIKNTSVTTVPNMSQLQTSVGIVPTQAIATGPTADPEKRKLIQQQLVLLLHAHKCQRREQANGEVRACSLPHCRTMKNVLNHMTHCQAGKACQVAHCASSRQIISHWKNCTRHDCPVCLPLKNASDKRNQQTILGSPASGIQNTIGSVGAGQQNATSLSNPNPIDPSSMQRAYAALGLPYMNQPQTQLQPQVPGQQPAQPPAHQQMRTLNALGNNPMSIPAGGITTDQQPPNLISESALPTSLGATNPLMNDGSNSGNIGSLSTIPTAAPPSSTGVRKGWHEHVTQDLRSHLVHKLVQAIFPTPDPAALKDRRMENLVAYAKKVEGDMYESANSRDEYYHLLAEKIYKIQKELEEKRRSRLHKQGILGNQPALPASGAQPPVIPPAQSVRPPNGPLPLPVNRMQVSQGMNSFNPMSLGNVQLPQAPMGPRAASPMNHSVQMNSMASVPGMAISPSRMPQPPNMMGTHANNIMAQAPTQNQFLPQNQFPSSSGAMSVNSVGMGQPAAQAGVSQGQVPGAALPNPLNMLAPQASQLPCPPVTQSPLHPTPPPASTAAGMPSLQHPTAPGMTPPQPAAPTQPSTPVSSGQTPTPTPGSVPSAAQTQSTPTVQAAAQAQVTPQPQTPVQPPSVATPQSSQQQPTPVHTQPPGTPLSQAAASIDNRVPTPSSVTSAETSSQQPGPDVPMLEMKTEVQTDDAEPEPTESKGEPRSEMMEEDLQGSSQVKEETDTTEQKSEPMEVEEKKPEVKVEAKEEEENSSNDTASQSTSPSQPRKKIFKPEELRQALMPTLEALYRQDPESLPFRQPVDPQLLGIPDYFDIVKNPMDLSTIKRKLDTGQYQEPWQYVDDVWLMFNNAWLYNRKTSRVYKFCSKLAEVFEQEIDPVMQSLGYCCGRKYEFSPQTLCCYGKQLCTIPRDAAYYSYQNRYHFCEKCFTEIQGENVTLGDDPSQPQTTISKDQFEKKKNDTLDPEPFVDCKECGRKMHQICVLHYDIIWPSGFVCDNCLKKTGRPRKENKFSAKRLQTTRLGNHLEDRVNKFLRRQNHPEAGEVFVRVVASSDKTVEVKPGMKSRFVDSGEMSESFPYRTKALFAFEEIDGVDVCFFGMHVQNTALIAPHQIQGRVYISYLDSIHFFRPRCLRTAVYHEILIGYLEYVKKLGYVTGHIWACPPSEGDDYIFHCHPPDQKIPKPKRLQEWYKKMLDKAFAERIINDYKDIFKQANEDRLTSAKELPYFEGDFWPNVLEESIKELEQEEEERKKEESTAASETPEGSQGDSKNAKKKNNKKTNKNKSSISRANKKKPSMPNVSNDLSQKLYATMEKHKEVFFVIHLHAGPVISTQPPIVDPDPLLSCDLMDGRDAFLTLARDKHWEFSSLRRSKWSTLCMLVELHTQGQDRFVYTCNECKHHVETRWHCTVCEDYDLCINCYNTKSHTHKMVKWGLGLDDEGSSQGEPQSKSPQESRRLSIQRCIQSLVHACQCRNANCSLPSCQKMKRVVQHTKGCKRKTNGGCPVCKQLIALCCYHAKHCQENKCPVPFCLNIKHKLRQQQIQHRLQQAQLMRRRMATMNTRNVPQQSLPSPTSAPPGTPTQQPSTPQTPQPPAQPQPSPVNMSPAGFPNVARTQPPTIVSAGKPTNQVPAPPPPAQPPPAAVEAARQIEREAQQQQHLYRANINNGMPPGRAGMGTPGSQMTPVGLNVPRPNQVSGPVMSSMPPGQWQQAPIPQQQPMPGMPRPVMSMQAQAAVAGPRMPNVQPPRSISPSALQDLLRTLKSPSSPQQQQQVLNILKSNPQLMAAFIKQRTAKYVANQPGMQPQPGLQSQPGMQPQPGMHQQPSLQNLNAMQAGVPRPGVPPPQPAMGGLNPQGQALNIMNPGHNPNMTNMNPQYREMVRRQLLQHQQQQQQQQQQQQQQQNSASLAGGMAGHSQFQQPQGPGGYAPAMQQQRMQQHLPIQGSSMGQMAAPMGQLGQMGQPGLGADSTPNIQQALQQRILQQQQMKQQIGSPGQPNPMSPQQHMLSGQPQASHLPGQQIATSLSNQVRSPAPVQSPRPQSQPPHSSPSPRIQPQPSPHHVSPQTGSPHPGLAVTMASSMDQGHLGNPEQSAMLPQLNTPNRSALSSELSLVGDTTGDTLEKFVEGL
Procedure: Co-immunoprecipitation of β-catenin with CBP or p300 in P19 cells. Co-immunoprecipitation was performed as described in (27). Briefly, P19 cells were treated with 10 μM ICG-001 or 10 μM IQ-1 (control DMSO was 0.025%) for 24 hours, after which they were washed and lysed […]. Nuclear fraction was isolated and precleared with antibodies to CBP(A-22) or p300(N-15). β-catenin was detected using a mouse monoclonal antibody (Becton Dickinson) at a dilution of 1:5000.

[2] = system: p300 Ser89 phosphorylation; assay: Immunoblot of p300 and phospho-serine89-p300 in P19 cells; assay type: cell-based; details: Wnt3a stimulated P19 cells, 10 μM, 24 hours
Procedure: Detection of CBP, p300, and phospho-serine89-p300 in P19 cells. P19 cells exposed to either Wnt3A or vehicle control, after which IQ-1 was added to a final concentration of 10 μM. Control DMSO was 0.025%. Cells were incubated for 24 hours. At the end of this incubation period, cells were washed, lysed and subjected to SDS-PAGE. CBP and p300 were detected using the rabbit polyclonal antibody (A-22)(1:5000); and (C-20)(1:5000) (Santa Cruz), respectively. Phospho-serine89-p300 was detected using custom antisera at a dilution of 1:100.

P19 cells = assay: Real-time RT-PCR of stem cell maintenance genes in P19 cells; assay type: cell-based; details: Wnt3a and IQ-1 vs Wnt3a+DMSO, from the control gene β-actin
Procedure: Real-time RT-PCR. Total RNA was isolated and reverse-transcribed using SuperScript III (Invitrogen). Real-time RT-PCR (Sybr Green; BioRad) was performed using with the gene-specific primers: […]
In certain experiments, 2 μg of extracted total RNA was reverse-transcribed using SuperScript III RT-PCR system (Invitrogen) according to the manufacturer's protocol. 1 μl of cDNA was amplified by PCR with one or more of the gene-specific primers of SEQ ID NOs:5-18 using optimized PCR cycles to obtain amplified reactions in the linear range.
In Table 1, above, the effects of IQ-1 treatment on genes associates with stem cell maintenance are shown, as measured by RT-PCR. The values are represented as ΔΔCT from the control gene β-actin.

ESCs = assay: Long term feeder-free culture of ESCs in serum-free (15% KSR) media; assay type: cell-based, mouse
Procedure: FIG. 7. […] ESCs were cultured in 15% KSR, 4 μg/ml of IQ-1 and 100 ng/ml Wnt3a. ESCs were passaged 2-3 times per week at 1×10^5-1×10^6 cells per 6 cm dish and cells were counted.
FIG. 8. […] AP activity of ESCs cultured for 7 days in IQ-1 containing media supplemented with 15% FCS or 15% KSR. […] (Error bars represent ±S.D.)
FIG. 9. […] Over the 42-day culture period, ESCs cultured in the media in the presence of IQ-1 and Wnt3a maintain expression of the pluripotency markers, (a) Nanog, (b) Oct3/4 and (c) Rex-1. The expression level on day 0 was set as 1.
Cell culture. ESCs, D3ES (ATCC CRL-1934) were maintained on Mitomycin C treated MEFs in mouse ESC medium containing DMEM (Invitrogen) supplemented with 15% FBS (Invitrogen), 0.1 mM MEM nonessential amino acids (Invitrogen), 0.1 mM 2-mercaptoethanol (Sigma), 2 mM L-glutamine (Invitrogen) and 1,000 U/ml LIF (CHEMICON). To remove MEFs, cells were collected by trypsinization and plated on gelatin-coated culture dishes for 20 min. Non-adherent cells consisting mainly of ESCs were replated on gelatin-coated culture dishes again. Non-adherent cells were used for further experiments. P19 cells were cultured according to conditions recommended by the ATCC. Cells were incubated at 37° C. in a 5% CO2 incubator. Purified Wnt3a was purchased (R&D Systems).

[3] = stimulated with pt-mut β-catenin

relative amount of β-catenin associated with CBP (CBP/β-catenin complex): dramatic increase
SMILES: CC(=O)c1ccc(NN=C(C(N)=O)C2=NC(C)(C)Cc3ccccc32)cc1 [IQ-1]
SSEA-1 expression (Murine ESCs (D3 ES)): enhanced expression
Fopflash reporter activity ([1]; NIH-3T3 cells): no effect
TOPFLASH activity, NIH-3T3 CBP (+/−) cells [1, 3]: did not affect TOPFLASH or FOPFLASH activity
TOPFLASH activity, wt NIH-3T3 cells [1, 3]: did not affect TOPFLASH or FOPFLASH activity
increase in TOPFLASH activity, NIH-3T3 p300 (+/−) cells [1, 3]: 2-3 fold
phosphorylation level of p300 Ser89 [2]: dramatic decrease
total amount of p300 [2]: not affected
ΔΔCT MDR-1 (P19 cells): 1.69
ΔΔCT Oct4 (P19 cells): 0.39
ΔΔCT Sox-2 (P19 cells): 4.31
ΔΔCT c-myc (P19 cells): −2.01
proliferation and expression of Oct4, Nanog and Rex1, combination of Wnt3a and IQ-1 (ESCs; 15% KSR, Wnt3a 100 ng/ml plus IQ-1 4 μg/ml): allowed for proliferation and maintenance of pluripotency
time ESC proliferation and pluripotency maintained in culture (ESCs; IQ-1 in conjunction with purified Wnt3a, absence of serum): at least 48 days
maintenance of undifferentiated status of ESCs, agent alone (ESCs; KSR media, single agent): Neither Wnt3a nor IQ-1 alone was sufficient
